Reference: paper PMC7895462 (Neurochemical research, 2017)
Like-named read-outs stand apart in the source and are kept apart here.

How the values were obtained:
MES-induced seizures [1] = assay: Maximal electroshock; type: in vivo
[2] = tested on: 60 Hz corneal kindled seizures; settings: for average seizure score (SEM): corneal kindled mouse
[3] = in vivo; for Rat I.P. identification TOX: ip; for Rat P.O. identification TOX: po
in vivo [4] = settings: mouse
[5] = tested on: psychomotor seizures induced by 6 Hz 44 mA corneal stimulus; assay: 6 Hz 44 mA mouse test; type: in vivo; settings: for ED50: Mus musculus; for Mouse I.P identification 44 mA / Mouse P.O. identification 44 mA: 0.5 and 2 h, default doses 30, 100, 300 mg/kg
MES-induced seizures [6] = assay: Maximal electroshock; type: in vivo; settings: for Mouse I.P identification MES / Mouse P.O. identification MES: 0.5 and 2 h, default doses 30, 100, 300 mg/kg; for ED50: Mus musculus
[7] = tested on: 60 Hz corneal kindled seizures; assay: animal or person; settings: Mus musculus, ip
in vivo [8] = settings: rat
Minimal motor impairment = settings: for TD50: rat, in vivo
[9] = for Mouse I.P identification TOX / Mouse P.O. identification TOX: 0.5 and 2 h, default doses 30, 100, 300 mg/kg
[10] = Open field activity monitor of rats; type: in vivo; settings: rat; i.p.; 45 and 60 mg/kg; 10 min; vs vehicle
[11] = tested on: spontaneous bursting of a mEC-HC slice; assay: In vitro post-KA rat spontaneous bursting mEC-HC slice; type: cell-based
[12] = ip, read-out: Mouse I.P. quantification 44 mA (ED50)
[13] = po, read-out: Mouse P.O. quantification 44 mA (ED50)
[14] = read-out: Mouse CKM (I.P.) Quant (ED50), i.p.
[15] = ip, read-out: Mouse I.P. quantification MES (ED50)
[16] = po, read-out: Mouse P.O. quantification MES (ED50)
[17] = po, Rat P.O. quantification TOX (TD50)
[18] = 30 mg/kg (n = 2 mice) and 40 mg/kg (n = 1 mouse)
[19] = ip, Rat I.P. quantification TOX (TD50)
[20] = read-out: Mouse CKM (I.P.) Quant (ED50)

Row | SMILES | Rat I.P. identification MES (MES-induced seizures [1]; i.p.) | Rat P.O. identification MES (MES-induced seizures [1]) | Mouse CKM (I.P.) ID ([2]; i.p.) | Rat I.P. identification TOX [3] | Rat P.O. identification TOX [3] | TD50 (in vivo [4]; ip) | TD50 (in vivo [4]; po) | ED50 [5, 12] | ED50 [5, 13] | Mouse I.P identification 44 mA ([5]; i.p., 6 Hz 44 mA) | Mouse P.O. identification 44 mA ([5]; 6 Hz 44 mA) | Mouse I.P identification MES (MES-induced seizures [6]; i.p.) | Mouse P.O. identification MES (MES-induced seizures [6]) | ED50 [7, 14] | ED50 (MES-induced seizures [6]; [15]) | ED50 (MES-induced seizures [6]; [16]) | Rat I.P. identification TOX (Minimal motor impairment; i.p.) | Rat P.O. identification TOX (Minimal motor impairment) | Mouse I.P identification TOX ([9]; i.p.) | Mouse P.O. identification TOX [9] | further results
1 | CC[C@@H](C(N)=O)N1CCCC1=O [Levetiracetam, levetiracetam] | − | − | + | − | − | > 1500 mg/kg | > 500 mg/kg | > 1500 mg/kg | > 500 mg/kg | + | + | − | − |  |  |  |  |  |  |  | 
2 | NC(=O)N1c2ccccc2C=Cc2ccccc21 [Carbamazepine, carbamazepine] | + | + | + | + | + |  | 95.4 mg/kg | 31.4 mg/kg | 63.7 mg/kg | + | + | + | + | 6.42 mg/kg | 8.38 mg/kg | 11.3 mg/kg |  |  |  |  | protective index (PI), corneal kindled mouse ([2]; male, CF-1, mouse, in vivo, ip): 7.1; TD50 (in vivo [8]; ip): 22.9 mg/kg; TD50 (in vivo [8]; po): > 500 mg/kg
3 | OC[C@H]1O[C@@H](n2cnc3c(NC4CCCC4)ncnc32)[C@H](O)[C@@H]1O [N6-Cyclopentyladenosine, N^6-cyclopentyladenosine] | + | + | − |  |  | 0.94 mg/kg | 6.94 mg/kg | 0.19 mg/kg | 1.36 mg/kg | + | + | + | + |  | 1.01 mg/kg | 4.43 mg/kg | + | + | + | + | average seizure score (SEM) ([2]; 0.1 mg/kg): 4.75 ± 0.25; average seizure score (SEM) ([2]; 2 mg/kg): 4.88 ± 0.13; TD50 (Minimal motor impairment; [17]): > 10 mg/kg
4 | Clc1cccc(N2CCNCC2)c1 [m-CPP, meta-chlorophenylpiperazine] | + | + | − |  |  |  |  |  |  | − | − | − | − |  |  |  | − | − | + | − | Rat I.P. quantification MES (ED50) (MES-induced seizures [1]; i.p.): 37.1 mg/kg; protected in the corneal kindled mouse ([2]; 20 mg/kg, i.p., 15 min prior to testing): 0/8; protection in the corneal kindled mouse [2, 18]: lack of protection; adverse side effects in corneal kindled mice ([2]; at the highest doses tested): severe adverse side effects, including splaying, tremors, and mortality following seizure; Rat I.P. quantification TOX (TD50) (Minimal motor impairment; i.p.): <10 mg/kg; total distance travelled in the open field [10]: significant, dose-dependent reduction; MMI in corneal kindled mice [9, 18]: significant MMI in all animals tested; mice with significant MMI on the rotarod assay ([9]; corneal kindled mice, 20 mg/kg, i.p., 15 min): 3/8; Mouse I.P. quantification TOX (TD50) ([9]; i.p., rotorod): 52.6 mg/kg; Mouse I.P. quantification 44 mA (ED50) ([5]; i.p., 6 Hz 44 mA, at time of peak effect): >55 mg/kg; Mouse I.P. quantification MES (ED50) (MES-induced seizures [6]; i.p., at time of peak effect): >60 mg/kg; protective index (PI), i.p., MES test (MES-induced seizures [6]; mouse, i.p.): less than 1.0; mice protected in the MES test (MES-induced seizures [6]; screening, at 10 and 30 mg/kg): one out of four
5 | CCCC(CCC)C(=O)O [Valproic acid, valproic acid] | − | − | + | − | − | > 300 mg/kg | < 300 mg/kg | 239 mg/kg | > 300 mg/kg | + | − |  | − | 94 mg/kg | > 60 mg/kg | > 300 mg/kg |  |  |  |  | Mouse CKM (I.P.) Quant (ED50) ([2]; i.p.): 94.02 mg/kg; protective index (PI), corneal kindled mouse ([2]; male, CF-1, mouse, in vivo, ip): > 94
6 | CC(=O)Nc1ccc(O)cc1 [Acetaminophen, acetaminophen] | − | − | + | − | − |  |  |  |  | − | − | − | − | > 450 mg/kg |  |  |  |  |  |  | protected in the corneal kindled mouse ([2]; 20 mg/kg, i.p., 30 min after administration): 1/8; protected in the corneal kindled mouse ([2]; 80 mg/kg, i.p., 30 min after administration): 0/8; protected in the corneal kindled mouse ([2]; 120 mg/kg, i.p., 30 min after administration): 1/8; protected in the corneal kindled mouse ([2]; 150 mg/kg, i.p., 30 min after administration): 2/8; protected in the corneal kindled mouse ([2]; 175 mg/kg, i.p., 30 min after administration): 0/12; death of corneal kindled mice ([2]; 450 mg/kg, 24-hours later): 1/4; protected in the corneal kindled mouse ([2]; 450 mg/kg, i.p., 30 min after administration): 3/4; amplitude of spontaneous bursts ([11]; 3000 μM): small, but significant increase; acute effects on spontaneous bursting in vitro ([11]; concentrations up to 1000 μM): did not identify any acute effects
7 | CN1C(=O)CC(=O)N(c2ccccc2)c2cc(Cl)ccc21 [Clobazam, clobazam] | − | − | + |  |  | 26.1 mg/kg | 197 mg/kg | 4.5 mg/kg | 6.99 mg/kg | + | + | + | + |  | 16.5 mg/kg | 29.9 mg/kg | − | − | + | − | protective index (PI), corneal kindled mouse ([2]; calculated based on the i.p. TD50): 10.3; TD50 (Minimal motor impairment; [19]): 15.7 mg/kg; ED50 [7, 20]: 2.53 mg/kg
8 | CCOC(=O)Nc1ccc(NCc2ccc(F)cc2)cc1N [Retigabine, retigabine] | + | + | + |  |  | 129 mg/kg | > 500 mg/kg | 32.5 mg/kg | 75.1 mg/kg | + | + | + | + |  | 25.7 mg/kg | 57 mg/kg | + | + |  | + | TD50 (Minimal motor impairment; [19]): 23.4 mg/kg; TD50 (Minimal motor impairment; [17]): 64.4 mg/kg; ED50 [7, 20]: 13.7 mg/kg
9 | Cc1ccsc1C(=CCCN1CCC[C@@H](C(=O)O)C1)c1sccc1C [Tiagabine, tiagabine] | − | − |  | + | − | 5.84 mg/kg | 33.2 mg/kg | 1.03 mg/kg | 1.87 mg/kg | + | + | − | − |  |  |  |  |  |  |  | 
